Tests used:
Assay type in all cases: cell-based, human
Caov-3 cells [1] = experiment: Mitotic figures analysis by confocal microscopy, Caov-3; conditions: 4 nM paclitaxel combined with 2.7 V/cm pk-pk, 200 kHz TTFields, 72 hours, Caov-3, compared to control and single treatments
Procedure: (§1) The human ovarian carcinoma cell line A2780 was obtained from the European Collection of Cell Cultures. The human ovarian adenocarcinoma cell lines OVCAR-3 (HTB-161) and Caov-3 (HTB-75) were obtained from the American Type Culture Collection (ATCC). Paclitaxel (Sigma Aldrich, Rehovot, Israel) dissolved in DMSO was used at the following concentrations: 1 nM, 2 nM, 4 nM, 10 nM, and 100 nM.
(§2) TTFields were applied in vitro using special ceramic Petri dishes with two pairs of transducer arrays printed perpendicularly on the outer walls of a Petri dish. The inner surfaces of the electrodes were coated with a high dielectric constant ceramic (lead magnesium niobate-lead titanate (PMN-PT)). The transducer arrays were connected to a sinusoidal waveform generator which generated fields at 200 kHz in the medium. By selectively activating the signals that were applied to the electrodes, the orientation of the TTFields was switched 90° every 1 second, thus covering the majority of the orientation axis of cell divisions, as previously described by Kirson et al. During the experiment, temperature was measured by 2 thermistors (Omega Engineering, Stamford, Conn.) attached to the walls of the Petri dish. All cells suspensions were grown on a cover slip inside the Petri dish and treated with TTFields at intensity of 2.7 V/cm. […]

OVCAR-3 cells [2] = experiment: Cell cycle analysis by flow cytometry, OVCAR-3; conditions: 72 hours
Procedure: (§3) The human ovarian carcinoma cell line A2780 was obtained from the European Collection of Cell Cultures. The human ovarian adenocarcinoma cell lines OVCAR-3 (HTB-161) and Caov-3 (HTB-75) were obtained from the American Type Culture Collection (ATCC). Paclitaxel (Sigma Aldrich, Rehovot, Israel) dissolved in DMSO was used at the following concentrations: 1 nM, 2 nM, 4 nM, 10 nM, and 100 nM. TTFields were applied in vitro using special ceramic Petri dishes with two pairs of transducer arrays printed perpendicularly on the outer walls of a Petri dish. The inner surfaces of the electrodes were coated with a high dielectric constant ceramic (lead magnesium niobate-lead titanate (PMN-PT)). […] By selectively activating the signals that were applied to the electrodes, the orientation of the TTFields was switched 90° every 1 second, thus covering the majority of the orientation axis of cell divisions, as previously described by Kirson et al. During the experiment, temperature was measured by 2 thermistors (Omega Engineering, Stamford, Conn.) attached to the walls of the Petri dish. […] Cell cycle distribution was then quantified using iCyt EC800. Fluorescence signals were collected at the wavelengths of 525/50 nm for Annexin V and 665/30 nm for 7-AAD. The data was analyzed using the Flowjo software. […]

A2780 cells [3] = experiment: Cell cycle analysis by flow cytometry, A2780; conditions: 8 hours
Procedure: as §3

Caov-3 cells [4] = experiment: Cell cycle analysis by flow cytometry, Caov-3; conditions: 72 hours
Procedure: as §3

OVCAR-3 cells [5] = experiment: Mitotic figures analysis by confocal microscopy, OVCAR-3; conditions: 4 nM paclitaxel combined with 2.7 V/cm pk-pk, 200 kHz TTFields, 72 hours, OVCAR-3, compared to control and single treatments
Procedure: as §1, §2

A2780 cells [6] = experiment: Mitotic figures analysis by confocal microscopy, A2780; conditions: 4 nM paclitaxel combined with 2.7 V/cm pk-pk, 200 kHz TTFields, 72 hours, A2780, compared to control and single treatments
Procedure: as §1, §2

[7] = low dose paclitaxel (2, 4 and 10 nM) combined with TTFields (2.7 V/cm, 200 kHz)
[8] = paclitaxel alone, without TTFields

Q: With `CC(=O)O[C@H]1C(=O)[C@@]2(C)[C@H]([C@H](OC(=O)c3ccccc3)[C@]3(O)C[C@H](OC(=O)[C@H](O)[C@@H](NC(=O)c4ccccc4)c4ccccc4)C(C)=C1C3(C)C)[C@]1(OC(C)=O)CO[C@@H]1C[C@@H]2O` [paclitaxel] as the compound, how does the “mitotic figures (mitotic arrest)” value (Caov-3 cells [1]) read?
A: Its value is “substantial increase in mitotic figures”.

Q: What about the “number of cells in the G2/M phase” value (OVCAR-3 cells [2]; [7]) of the same compound?
A: The value was “dramatically increased”.

Q: And the “cells in the G2/M phase” value (OVCAR-3 cells [2]; [8])?
A: The value was “accumulated in the G2/M phase in a dose dependent manner”.

Q: What about the “cells in the G2/M phase” value (A2780 cells [3]; low dose paclitaxel combined with TTFields (2.7 V/cm, 200 kHz)) of the same compound?
A: Its value is “accumulated in the G2/M phase even after a short treatment duration”.

Q: What about the “cells in the G2/M phase” value (A2780 cells [3]; [8]) of the same compound?
A: Its value is “accumulated in the G2/M phase in a dose dependent manner”.

Q: And the “number of cells in the G2/M phase” value (Caov-3 cells [4]; [7])?
A: The value was “dramatically increased”.

Q: And the “cells in the G2/M phase” value (Caov-3 cells [4]; [8])?
A: Its value is “accumulated in the G2/M phase in a dose dependent manner”.

Q: And the “mitotic figures (mitotic arrest)” value (OVCAR-3 cells [5])?
A: Its value is “substantial increase in mitotic figures”.

Q: What about the “mitotic figures (mitotic arrest)” value (A2780 cells [6]) of the same compound?
A: Its value is “substantial increase in mitotic figures”.
